Experimental data reported in patent publication US12440528B2, “Methods of treating ovarian cancer with hemp extract” (Ecofibre USA Inc., priority 2021, dated 2025).

How the values were obtained:
Type in all cases: cell-based, human
[1] = system: patient derived organoids (PD3D Cell Culture); assay: Calculated IC50 in PD3D cell culture of the patient derived organoids
[2] = system: patient derived organoids; details: for % Cell Death: organoid cell death
Excerpt: A few of the above drug products, as well as additional drugs were tried for response to patient derived organoids.

[3] = system: patient derived chemosensitive and chemoresistant ovarian cancer organoids; assay: Four Cannabis extracts on newly obtained ovarian cancer organoids, viability; details: 50 μg/mL
Method: Applicant then tested several different Cannabis extracts at varying concentrations on newly obtained patient derived chemosensitive and chemoresistant ovarian cancer organoids. […] Here, the BSHE continued to work at virtually the same level as prior tests, even though these organoids were generated from different patients than all prior tests. […] However, what remains constant is that at or about 10 μg/mL, virtually all patient derived organoid samples begin to or reach zero viability.

[4] = system: patient derived endometrial cancer organoids; assay: Carboplatin alone or with Cannabis extract, endometrial cancer organoids
Excerpt: To determine if this premise is conserved over different chemotherapeutic agents, Applicant repeated the tests replacing paclitaxel with carboplatin toward a related gynecological cancer cell, endometrial cancer cells. The surprising findings with paclitaxel were further confirmed by testing the impacts of carboplatin alone or carboplatin with a Cannabis extract.
Finally, with a dose of 250 μm/mL carboplatin, a 2.5× in the dose from the […] test, all of the combined therapeutics with carboplatin and Cannabis extract are below 10% viability, while the carboplatin alone remains at above 30%.

Calculated IC50 PD3D Cell Culture [1] | Compound | % Cell Death [2] | also measured
Not Reached | CCN(CCO)CCCC(C)Nc1ccnc2cc(Cl)ccc12 (centres unmarked) [Hydroxychloroquine] | – | –
– | N[C@@H](Cc1ccc(N(CCCl)CCCl)cc1)C(=O)O [Melphalan] | 40% | –
– | O=P1(N(CCCl)CCCl)NCCCO1 (centres unmarked) [Cyclosphosphamide] | 32% | –
Not Reached | O=C1O[C@H]([C@@H](O)CO)C(O)=C1O [Ascorbic Acid] | – | –
– | CN(C)/N=N/c1[nH]cnc1C(N)=O [Dacarbazine] | 32% | –
– | COc1cccc2c1C(=O)c1c(O)c3c(c(O)c1C2=O)C[C@@](O)(C(=O)CO)C[C@@H]3O[C@H]1C[C@H](N)[C@H](O)[C@H](C)O1 [Doxorubicin] | 39% | –
Not Reached | C[C@@H](Oc1cc(-c2cnn(C3CCNCC3)c2)cnc1N)c1c(Cl)ccc(F)c1Cl [Crizotinib] | – | –
– | CC[C@]1(O)C[C@H]2CN(CCc3c([nH]c4ccccc34)[C@@](C(=O)OC)(c3cc4c(cc3OC)N(C=O)[C@H]3[C@@](O)(C(=O)OC)[C@H](OC(C)=O)[C@]5(CC)C=CCN6CC[C@]43[C@@H]65)C2)C1 [vincristine] | No Response | –
– | N.N.[Cl][Pt][Cl] [Cisplatin] | 36% | –
– | C=C(C)[C@@H]1CCC(C)=C[C@H]1c1c(O)cc(CCCCC)c(C(=O)O)c1O [CBDA, cannabidiolic acid] | – | viability [3]: nearing zero viability
– | CO[C@@]12[C@H](COC(N)=O)C3=C(C(=O)C(C)=C(N)C3=O)N1C[C@@H]1N[C@@H]12 [mitomycin] | No Response | –
– | O=C1c2c(O)ccc(O)c2C(=O)c2c(NCCNCCO)ccc(NCCNCCO)c21 [Mitoxantrone] | 50% | –
– | CCc1c2c(nc3ccc(OC(=O)N4CCC(N5CCCCC5)CC4)cc13)-c1cc3c(c(=O)n1C2)COC(=O)[C@]3(O)CC [Irinotecan] | 51% | –
Not Reached | O=C(c1cc(Cc2n[nH]c(=O)c3ccccc23)ccc1F)N1CCN(C(=O)C2CC2)CC1 [Olaparib] | – | –
– | COc1cc2c(cc1O)CCN[C@]21CS[C@@H]2c3c(OC(C)=O)c(C)c4c(c3[C@H](COC1=O)N1[C@@H]2[C@H]2c3c(cc(C)c(OC)c3O)C[C@@H]([C@@H]1O)N2C)OCO4 [Trabectedine] | 32% | –
Not Reached | Nc1cccc2c1C(=O)N(C1CCC(=O)NC1=O)C2=O (centres unmarked) [Pomalidomide] | – | –
– | CCC1=C[C@@H]2CN(C1)Cc1c([nH]c3ccccc13)[C@@](C(=O)OC)(c1cc3c(cc1OC)N(C)[C@H]1[C@@](O)(C(=O)OC)[C@H](OC(C)=O)[C@]4(CC)C=CCN5CC[C@]31[C@@H]54)C2 [Vinorelbine] | 45% | –
– | CN(Cc1cnc2nc(N)nc(N)c2n1)c1ccc(C(=O)N[C@@H](CCC(=O)O)C(=O)O)cc1 [methotrexate] | No Response | –

Calculated IC50 PD3D Cell Culture [1] | Compound | % Cell Death [2] | also measured
– | 5-Fluorouaracil/Capecitabine | 61% | –
– | CO[C@H]1C(=O)[C@]2(C)[C@@H](OC)C[C@H]3OC[C@@]3(OC(C)=O)[C@H]2[C@H](OC(=O)c2ccccc2)[C@]2(O)C[C@H](OC(=O)[C@H](O)[C@@H](NC(=O)OC(C)(C)C)c3ccccc3)C(C)=C1C2(C)C [Cabazitaxel] | 37% | –
Not Reached | O=C(c1ccc(F)c(F)c1Nc1ccc(I)cc1F)N1CC(O)([C@@H]2CCCCN2)C1 [Cobimetinib] | – | –
– | COc1cccc2c1C(=O)c1c(O)c3c(c(O)c1C2=O)C[C@@](O)(C(=O)CO)C[C@@H]3O[C@H]1C[C@H](N)[C@@H](O)[C@H](C)O1 [epirubicin] | No Response | –
– | O=P1(NCCCl)OCCCN1CCCl (centres unmarked) [ifosfamide] | No Response | –
Not Reached | N[C@@H](CCC(=O)N[C@@H](CS)C(=O)NCC(=O)O)C(=O)O [Glutathione] | – | –
– | CC(=O)O[C@@]12CO[C@@H]1C[C@H](O)[C@@]1(C)C(=O)[C@H](O)C3=C(C)[C@@H](OC(=O)[C@H](O)[C@@H](NC(=O)OC(C)(C)C)c4ccccc4)C[C@@](O)([C@@H](OC(=O)c4ccccc4)[C@H]21)C3(C)C [Docetaxel] | No Response | –
– | gemcitabine/capecitabine [GemCap] | – | response of the patient's organoid ([2]; organoid of the chemoresistant endometrial cancer patient): partial response
– | CC[C@]1(O)C[C@@H]2CN(CCc3c([nH]c4ccccc34)[C@@](C(=O)OC)(c3cc4c(cc3OC)N(C)[C@H]3[C@@](O)(C(=O)OC)[C@H](OC(C)=O)[C@]5(CC)C=CCN6CC[C@]43[C@@H]65)C2)C1 [Vinblastine] | 38% | –
– | Nc1ccn([C@@H]2O[C@H](CO)[C@@H](O)C2(F)F)c(=O)n1 [Gemcitabine] | 56% | –
Not Reached | CN(C)C(=N)N=C(N)N [Metformin] | – | –
– | C=C1C[C@@H]2CC[C@@]34C[C@H]5O[C@H]6[C@@H](O3)[C@H]3O[C@H](CC[C@@H]3O[C@H]6[C@H]5O4)CC(=O)C[C@@H]3[C@@H](OC)[C@@H](C[C@H](O)CN)O[C@H]3C[C@H]3O[C@@H](CC[C@@H]1O2)C[C@@H](C)C3=C [eribulin] | No Response | –
Not Reached | COc1cc2nccc(Oc3ccc(NC(=O)NC4CC4)c(Cl)c3)c2cc1C(N)=O [Lenvatinib] | – | –
– | N.N.O=C([O-])C1(C(=O)[O-])CCC1.[Pt+2] [Carboplatin] | 30% | viability ([4]; carboplatin alone 50 μg/mL): about 50%; viability ([4]; carboplatin alone 100 μg/mL): about 50%; total drop in viability on increasing the dose by 5× ([4]; carboplatin alone 50 to 250 μm/mL): about 17%
– | Cn1nnc2c(C(N)=O)ncn2c1=O [Temozolomide] | 40% | –
– | O=C1[O][Pt]2([NH][C@@H]3CCCC[C@H]3[NH]2)[O]C1=O [oxaliplatin] | No Response | –
– | COc1cc([C@@H]2c3cc4c(cc3[C@@H](O[C@@H]3O[C@@H]5CO[C@@H](C)O[C@H]5[C@H](O)[C@H]3O)[C@H]3COC(=O)[C@H]23)OCO4)cc(OC)c1O [Etoposide] | 33% | –
– | Bleomycin | 53% | –

Compound | Calculated IC50 PD3D Cell Culture [1] | % Cell Death [2] | also measured
CCN(CC)CCNC(=O)c1c(C)[nH]c(/C=C2\C(=O)Nc3ccc(F)cc32)c1C [Sunitnib] | Not Reached | – | –
Nc1nc2[nH]cc(CCc3ccc(C(=O)N[C@@H](CCC(=O)O)C(=O)O)cc3)c2c(=O)[nH]1 [Pemetrexed] | Not Reached | No Response | –
O=C(O)C(Cl)Cl [Dichloracetate] | Not Reached | – | –
Bevacizumab | Not Reached | – | –
